# Data as given in patent EP1214940B1, “Methods of enhancing the therapeutic activity of NSAIDs and compositions of zwitterionic phospholipids useful therein” (Board of Regents, The University of Texas System, priority 1995, dated 1996).
# Where two headings read alike, the source gives them in different places. Marks after values point to notes of the source that are not given here.
# Legend:
# [1] = system: rats; type: in vivo; settings: aspirin 90mg/kg daily intragastric over 2 weeks, (n) rats/group
# Method: Rats were treated with ASA over a two week period to investigate the chronic effects of NSAID exposure (in the presence and absence of phospholipids) on hematocrit, gastric mucosal hydrophobicity, and granuloma formation. […] The test solutions (saline, ASA and ASA/Phospholipon 90G complex) were intragastrically administered between 8AM - 9AM daily during the two week study period. In these chronic exposure experiments, ASA was complexed with an equimolar concentration of Phospholipon 90G (purified soya lecithin, prepared and obtained from Nattermann GmbH of Cologne, Germany) instead of DPPC. At the completion of the study period, blood was collected into a capillary tube for the determination of hematocrit and the stomach was excised for contact angle analysis.
# Contact angle analysis was performed with the use of a goniometer on excised gastric mucosal tissue, that was lightly blotted and dried, as previously outlined (Hills et al., 1983; Goddard et al., 1987; Goddard et al., 1990). Briefly, this was accomplished by applying a droplet of water (~ 5µl) to the tissue surface, and employing the telescopic eyepiece of the goniometer to measure the maximal angle that is dissected at the triple point, where the solid/liquid/ and air interface meet.
# [2] = system: rats; test: Acute gastric lesions in rats after salicylate-based NSAID and 0.6 N HCl challenge; type: in vivo, male Sprague Dawley rats; settings: intragastrically administered in association with DPPC versus without; rats challenged with 0.6N HCl; FIG. 4A
# Method: Ten minutes later, the rats were intragastrically challenged with 1 ml of 0.6 N HCI.
# One of a number of NSAIDs was intragastrically administered to rats alone or preassociated with an equimolar concentration of DPPC or Phospholipon 90 G (purified soya lecithin, prepared by Nattermann GmbH of Cologne Germany) in several models of acute and chronic injury of the upper GI tract. Two contrasting animal models were employed to determine the ability of DPPC to protect against acute NSAID injury to the GI tract. For salicylate-based NSAIDs, which primarily induce stomach injury, gastric lesions were scored in fasted rats who were initially treated with aspirin or salicylate alone or complexed with DPPC and challenged 10 minutes later with a supra-physiological dose of HCl. For non-salicylate NSAIDs (indomethacin, diclofenac and naproxen) which predominantly induce injury to the mid-distal regions of the small intestine, the quantity of intraluminal blood was assessed in the distal half of the small intestine of rats who were pre- and post-treated with the Nitric Oxide synthetase inhibitor, L-NAME (N-nitro-L-arginine methyl ester).
# [3] = type: physicochemical; settings: NSAID sodium salt 100mM, 25°C, neutral conditions, alone or sonicated with 0.5 mM DPPC or DPPG; the sodium-salicylate line is with DPPC; FIG. 3
# Method: The diffusion of aspirin (alone and complexed with phospholipid) from water into cyclohexane was used as a model to estimate the membrane permeability of the drug.
# The sodium salt of ASA (also salicylate) was dissolved in 5 ml of water at a final concentration of 100mM (pH adjusted to 6.0) and gently stirred at 25°C. An equal volume of cyclohexane was layered over the aqueous solution and the entry of the NSAID into the organic phase was monitored fluorometrically over time. In order to determine the effect of phospholipid association on the lipid permeability of the NSAID, ASA (or salicylate) at the above concentration was sonicated in the presence of 0.5 mM phospholipid (DPPC or DPPG) in water (adjusted to a pH of 7), and its rate of diffusion into the cyclohexane phase was measured fluorometrically. […] This entire process could be completed in < 30 seconds.
# [4] = system: Foreign-Body Granuloma Formation; test: Rat foreign-body granuloma formation (implanted cotton string), two-week daily treatment; type: in vivo, rats; settings: two weeks, (dry weight of string with adherent granuloma tissue - dry weight of string)/dry weight of string
# Excerpt: Sterile tared cotton string was surgically implanted (bilaterally) under the abdominal skin of ether anesthetized rats on day 1 of the study period, and then randomly placing rats in a group to be daily treated with saline, aspirin or the NSAID complexed with Phospholipon 90G over a two-week period.
# At the completion of the study period the string with the adherent granuloma tissue was surgically dissected from the euthanized rats and dried in a vacuum for several days at room temperature, until a baseline dry weight was obtained. The difference between this value and the initial dry weight of the string prior to implantation divided by the latter value provided an estimate of the weight of granuloma tissue.
# [5] = system: Foreign-Body Granuloma Formation in Rats; test: Foreign-body granuloma formation in rats, low dose aspirin (9 mg/kg) alone or with phospholipid/neutral lipids; type: in vivo; settings: aspirin 9 mg/kg intragastric twice a day, 5 doses, starting five days after implantation; (n); spread in next table row
# Excerpt: Sterile tared string was surgically implanted. Five days later rats were intragastrically administered twice a day with either saline, ASA alone, or ASA lipid mixtures.
# [6] = system: Platelet Aggregation; test: Ristocetin platelet aggregation test; type: cell-based
# [7] = system: rats; test: Rat fever model (Brewer's yeast), antipyretic activity by rectal temperature; type: in vivo; settings: for enhancement in anti-pyretic activity of the NSAID/DPPC complex compared to the NSAID alone: sodium salts complexed with equimolar DPPC, first three hours after intragastric administration
# Method: Similar antipyretic analyses were performed with the sodium salts of the following NSAIDs: diclofenac (10 mg/kg), indomethacin (10 mg/kg) and naproxen (30 mg/kg), alone and complexed with an equimolar concentration of DPPC. All test solutions were titrated to a pH of 4.5 prior to intragastric administration. Rectal temperatures were monitored in conscious, restrained rats at all indicated times.
# The ability of NSAIDs (administered alone and complexed with DPPC) to reduce fever in rats was determined.
structure (smiles),measurement,setting,value
"CC(=O)Oc1ccccc1C(=O)O [ASA, acetyl-salicylic acid]","Gastric Mucosal Hydrophobicity (degrees, Contact Angle)",[1],15.8 ± 6.6^c(6) degrees
same,Hematocrit,[1],47.8 ± 0.2^c(10)
same,injurious potential to induce gastric lesions,[2],remarkably decreased
same,passive diffusion (flux) from water into cyclohexane,[3],negligible
same,Granuloma Formation,[4]; ASA 90 mg/kg,1.90 ± 0.10^b
same,Granuloma Formation,[4]; ASA 140 mg/kg,1.07 ± 0.09^b
same,Foreign-Body Granuloma Formation,[5],3.89(8)
same,activity at 10 µM,"[6]; read-out: % Platelet Aggregation, High Ristocetin (1.5 mg/ml) Test, ASA 0.01mM, DPPC equimolar where added",100%
same,activity at 100 µM,"[6]; read-out: % Platelet Aggregation, High Ristocetin (1.5 mg/ml) Test, ASA 0.1 mM, DPPC equimolar where added",83%
same,activity at 1000 µM,"[6]; read-out: % Platelet Aggregation, High Ristocetin (1.5 mg/ml) Test, ASA 1.0 mM, DPPC equimolar where added",95%
same,activity at 1000 µM,"[6]; read-out: % Platelet Aggregation, High Ristocetin (1.5 mg/ml) Test, ASA 1.0 mM, second study, DPPC equimolar where added",100%
same,activity at 10 µM,"[6]; read-out: % Platelet Aggregation, Low Ristocetin (0.75) mg/ml Test, ASA 0.01mM, DPPC equimolar where added",65%
same,activity at 100 µM,"[6]; read-out: % Platelet Aggregation, Low Ristocetin (0.75) mg/ml Test, ASA 0.1mM, DPPC equimolar where added",26%
same,activity at 1000 µM,"[6]; read-out: % Platelet Aggregation, Low Ristocetin (0.75) mg/ml Test, ASA 1.0mM, second study, DPPC equimolar where added",39%
same,activity at 1000 µM,"[6]; read-out: % Platelet Aggregation, Low Ristocetin (0.75) mg/ml Test, ASA 1.0mm, DPPC equimolar where added",80%
same,antipyretic activity,"[7]; ASA 4.5 mg/kg (subthreshold), alone or complexed with equimolar DPPC, FIG. 9",no antipyretic activity alone
same,antipyretic activity,"[7]; ASA 9.0 mg/kg (subthreshold), intragastric, alone or with equimolar phospholipid, FIG. 6 (five hour period) and FIG. 8",does not have significant antipyretic activity
same,antipyretic activity after antisecretory pre-treatment,"[7]; aspirin 20 mg/kg (FIG. 22: 18 mg/kg) in conjunction with proton pump inhibitor omeprazole (Prilosec), IP 150 mg/kg two hours before",failed to reduce fever
same,antipyretic activity after antisecretory pre-treatment,"[7]; aspirin 20 mg/kg (FIG. 23: 18 mg/kg) in conjunction with Ranitidine (Zantac), IP 2 mg/kg 1 hour before",failed to reduce fever
same,antipyretic activity,"[7]; aspirin alone at doses of < 10 mg/kg, 4 hour study period, FIG. 7",failed to reduce the fever
"CCCCCCCCCCCCCCCC(=O)OCC(COP(=O)([O-])OCC[N+](C)(C)C)OC(=O)CCCCCCCCCCCCCCC (stereo not drawn) [DPPC, dipalmitoyl phosphatidylcholine]",activity at 1000 µM,"[6]; High Ristocetin (1.5 mg/ml) Test, ASA 0.00, DPPC alone at 1 mM, read-out: % Platelet Aggregation",100%
same,activity at 1000 µM,"[6]; Low Ristocetin (0.75) mg/ml Test, ASA 0.00, DPPC alone at 1 mM, read-out: % Platelet Aggregation",94%
"O=C(O)Cc1ccccc1Nc1c(Cl)cccc1Cl [diclofenac, 2-(2,6-dichlorophenylamino)-phenylacetic acid]",anti-pyretic activity with DPPC versus NSAID alone,"[7]; diclofenac 10 mg/kg with DPPC, FIG. 20",ability of DPPC to enhance the anti-pyretic activity
same,enhancement in anti-pyretic activity of the NSAID/DPPC complex compared to the NSAID alone,[7],-0.29 °C
"COc1ccc2c(c1)c(CC(=O)O)c(C)n2C(=O)c1ccc(Cl)cc1 [indomethacin, acetic acid]",anti-pyretic activity with DPPC versus NSAID alone,"[7]; indomethacin 10 mg/kg with DPPC, FIG. 18",ability of DPPC to enhance the anti-pyretic activity of ASA was seen
same,enhancement in anti-pyretic activity of the NSAID/DPPC complex compared to the NSAID alone,[7],-0.28 °C
"COc1ccc2cc([C@H](C)C(=O)O)ccc2c1 [naproxen, 2-(6-methoxy-2-naphthyl)-propinic acid]",anti-pyretic activity with DPPC versus NSAID alone,"[7]; naproxen 25 mg/kg dose with DPPC, FIG. 19",ability of DPPC to enhance the anti-pyretic activity
same,enhancement in anti-pyretic activity of the NSAID/DPPC complex compared to the NSAID alone,[7],-0.30 °C
"O=C(O)c1ccccc1O [salicylate, salicylic acid]",injurious potential to induce gastric lesions,[2],remarkably decreased
same,anti-pyretic activity with DPPC versus NSAID alone,"[7]; salicylic acid 70 mg/kg dose with DPPC, FIG. 21",ability of DPPC to enhance the anti-pyretic activity
